From US20120028837A1, “RAPID SCREEN FOR REPRODUCTIVE TOXICANTS” (PRESIDENT AND FELLOWS OF HARVARD COLLEGE, priority 2010, published 2012)
Where a name gives a salt, the structure may show the parent alone. Marks after values point to notes of the source that are not given here.

Legend:
[1] = system: xol-1::GFP worms; assay: xol-1::GFP reporter assay for male (aneuploid) embryos; details: for male embryos in adult mid-ventral sections: 0.1 mg/ml in liquid culture, added 1 day post-L4 for 20 hours; for frequency of xol-1::GFP worms containing GFP+ eggs: 0.1 mg/ml, preliminary analysis
Description: In one embodiment of the invention, synchronized cultures of worms are grown for the desired developmental period (e.g., from eggs to adulthood, 4 days) on multiwell plates (e.g., 96-well plates) containing media mixed with the compound of interest at the concentration of interest (e.g., 1 μM and 100 μM). The concentrations can be adjusted if necessary to compensate for solubility differences. Following exposure, the worms are washed off the plate with a physiological buffer and then run through a high-throughput flow cytometry device (e.g., the COPAS Biosort). With this automated nematode analysis, sorting, and dispensing platform (Furlong et al., Nat Biotechnol. 2001; 19(2):153-6; Gill et al., Free Radic Biol Med. 2003; 35(6):558-65; Rea et al., Nat Genet. 2005; 37(8):894-8. PMCID: 1479894) one 96-well plate can be screened per hour. In one embodiment, test wells are alternated with mock wells to flush the equipment in order to avoid cross-contamination. […] The worm sorter not only directs the sorting of GFP positive worms from GFP negative ones but when coupled to the Profiler analysis software, also allows for the localization of the fluorescence within the worm. In one embodiment, scoring is for GFP positive eggs present in the animal's mid-ventral section (uterus), therefore, any worms showing mis-localized GFP expression will be discarded thus improving the accuracy of the screen. Positive controls used for the screen can include colchicine and nocodazole, both described as disruptors of spindle organization and therefore of chromosome segregation (Sato A, et al., Cell. 2009; 139(5):907-19; Stear et al., Mol Biol Cell. 2004; 15(11):5187-96. PMCID: 524797).
Worms are grown from eggs to adulthood (4 days) on 96-well plates containing media mixed with the compound of interest. Initially, two different concentrations are assayed, 1 μM and 100 μM, concentrations previously used in the context of other C. elegans toxicological screens (Boyd, McBride and Freedman, 2007; Boyd et al, 2009).
Following exposure, the worms are washed off the plate with buffer and run through a high-throughput flow cytometry device, commonly known as a “worm sorter” (COPAS-Biosort from Union Biometrica). The worm sorter not only directs the sorting of GFP positive worms from GFP negative ones but when coupled to the Profiler analysis software, also allows for the localization of the fluorescence within the worm. Scoring in the screen, is for GFP positive eggs present in the animal's mid-ventral section (uterus), therefore, any worms showing mis-localized GFP expression are discounted thus improving the accuracy of the screen.
The xol-1::GFP reporter strain was tested for meiotic disruption by addition of an external agent, by exposing the C. elegans to several cell cycle disruptors (microtubule disrupting agents) dissolved in DMSO, DMSO alone was used as a negative control. Each individual test agent was added to the liquid culture medium of the C. elegans at 1 day post-L4 (4 days of development) for a total of 20 hours. The C. elegans was then analyzed for the percentage of male embryos in the adult-midventral sections. Nocodazol was added to the medium at a final concentration of 0.1 mg/ml.
Adult xol-1::GFP worms were exposed to 100 μM nocodazole for 24 hours in liquid culture and the presence of GFP+ embryos in the uterus of exposed worms was monitored.
The effect of selected chemotherapeutic agents on the generation of aneuploidies was analyzed. xol-1::GFP adult worms were exposed to the compounds at a concentration of 100 μM for 24 hours in liquid culture in triplicates.
Each well contained 750 μl of M9, the drug at a final concentration of 100 μM, concentrated bacteria and young adults+eggs. The cultures were examined at 24 hours and 4 days.

[2] = system: C. elegans germline; assay: Size of mitotic zone of the germline (DAPI, phospho-histone H3 staining)
Text: In C. elegans, the germline is comprised of two main compartments, a mitotic region (the premeiotic tip), where nuclei are under the influence of the distal tip cell that maintains them in a proliferative state; and the meiotic region, where nuclei progress through the stages of Prophase I before being fertilized. The mitotic compartment of the worm gonad following BPA exposure was examined.
(§1) BPA bears endocrine disrupting activity in many developmental contexts including gonadal, brain and mammary gland development. BPA has affinity for multiple members of the estrogen receptors family, in particular BPA binds to the human estrogen receptor alpha (ERα) and ERβ as well as estrogen-related receptor gamma (ERR-γ) and in C. elegans with nuclear hormone receptor NHR-14 which also binds estrogen. […] Two hallmarks of exposure to BPA were examined, the decrease in the size of the proliferative zone and the condensation defects observed at diakinesis, as they are both highly penetrant and consistent phenotypes. […] Similarly to the experiments described above, the size of the mitotic zone was quantified as well as condensation defects at diakinesis.
Growing Conditions and Drug Exposures. Worms were cultured according to [23] at 20° C. on NGM plates without cholesterol. […] Exposure was carried from embryogenesis to adulthood by plating sodium hypochloride treated eggs onto drug and control plates and incubated at 20° C. for four days.
Antibody Staining. DAN staining, immunostaining and analysis of stained meiotic nuclei were performed as in [25] except for ATL-1 and AIR-2 antibodies were dissected gonads were subjected to a 1% fixation method as described in [27]. […] The secondary antibodies used were: Cy3 anti-rabbit, FITC anti-guinea-pig and FITC anti-mouse (Jackson Immunochemicals), each at 1:100, Stacks of 0.2 μm slices were captured using a Leica microscope, coupled to the DeltaVision fluorescence microscope system (Applied Precision). […]

[3] = system: xol-1::LUC; assay: xol-1::luciferase reporter induction; format: in vivo, C. elegans; details: 1 μM or 100 μM for 24 hours, preliminary experiment
[4] = system: C. elegans diakinesis oocytes; assay: Diakinesis oocyte analysis (chromosome condensation, SYP-1, AIR-2, pH3); details: 1 mM E2; […] 4-HT
Text: Proper processing of recombination events is coupled with the formation of mature bivalents during the diakinesis stage such that in mutants where recombination intermediate processing is impaired, bivalent maturation is delayed.
Associated with the changes in chromatin morphology, the SC is disassembled during late diakinesis in a tightly controlled fashion. Accordingly, SC components, such as SYP-1, are detectable on the short arms of the bivalent in the −3 oocyte but are essentially absent from the bivalents of −2 and −1 oocytes. Thus, whether a delay in chromosome remodeling could correlate with an incomplete disassembly of SC components in late diakinesis was examined.
Accurate chromosome segregation at meiosis I is characterized by the carefully orchestrated loss of cohesion between homologs coupled with retention of cohesion between sister chromatids. This regulated process involves the targeting of the Aurora-B kinase AIR-2, a member of the chromosomal passenger complex, to the short arm of the bivalents in the −1 oocyte which has been proposed to lead to the removal the meiosis-specific cohesin REC-8 from the short arms of the bivalent. To examine whether these key steps in late meiotic prophase I might be impaired in BPA treated gonads, the localization of AIR-2 in the −1 oocytes was examined. […] Phospho histone H3 (pH3) is a canonical substrate for the activity of AIR-2 [59] and accordingly, although it accumulates in the −3 to −1 oocytes, it is only detected on the short arms of the bivalent in the −1 oocyte in the presence of AIR-2 [56, 57].
as §1
Antibody Staining. DAN staining, immunostaining and analysis of stained meiotic nuclei were performed as in [25] except for ATL-1 and AIR-2 antibodies were dissected gonads were subjected to a 1% fixation method as described in [27]. Antibodies were used at the following dilutions: rabbit α-SYP-1 (1:100), mouse α-RAD-51 (1:100), rabbit α-HTP-3 (1:500), guinea pig α-HIM-8 (1:100), rabbit α-ATL-1 (1:50), rabbit α-AIR-2 (1:100) and rabbit α-pCHK-1 (1:100). The secondary antibodies used were: Cy3 anti-rabbit, FITC anti-guinea-pig and FITC anti-mouse (Jackson Immunochemicals), each at 1:100, Stacks of 0.2 μm slices were captured using a Leica microscope, coupled to the DeltaVision fluorescence microscope system (Applied Precision). The images were projections approximately halfway through 3D data stacks of whole nuclei, except for diakinesis images which encompass entire nuclei.

[5] = xol-1::GFP, C. elegans, in vivo, 24 hours, 100 μM
[6] = average over the chemicals of the category, 100 μM, 24 hours, liquid culture, triplicates

`Oc1ncnc2[nH]ncc12` [Allopurinol] was tested, and the “Average % of worms with 1 or more GFP embryos/category” value [1, 5] was 0.6%.

4-hydroxy-tamoxifen [4-HT] was tested, and the “pH3 positive nuclei in mitotic zone vs control” value ([2]; 4 days exposure, BPA 1 mM, 4-HT […]) was “two-fold decrease”.

`CN[C@H]1CCc2cc(OC)c(OC)c(OC)c2-c2ccc(OC)c(=O)cc21` [demecolcine] was tested, and the “male embryos in adult mid-ventral sections” value [1] was 2.7% and the “frequency of xol-1::GFP worms containing GFP+ eggs” value [1] was 3/66.

`COC(=O)Nc1nc2ccc(C(=O)c3cccs3)cc2[nH]1` [nocodazole] was tested, and the “male embryos in adult mid-ventral sections” value [1] was 37%, the “frequency of xol-1::GFP worms containing GFP+ eggs” value [1] was 6/16 and the “worms with at least one GFP+ embryo” value ([1]; adult worms, 100 μM, 24 hours, liquid culture) was 55%. For the same compound, the “Average % of worms with 1 or more GFP embryos/category” value [1, 6] was 23.3% * and the “induction of luciferase compared to DMSO” value [3] was “significant induction”.

In the case of `CC[C@]1(O)C[C@H]2CN(CCc3c([nH]c4ccccc34)[C@@](C(=O)OC)(c3cc4c(cc3OC)N(C=O)[C@H]3[C@@](O)(C(=O)OC)[C@H](OC(C)=O)[C@]5(CC)C=CCN6CC[C@]43[C@@H]65)C2)C1` [Vincristine sulfate], the “Average % of worms with 1 or more GFP embryos/category” value [1, 6] is reported as 23.3% *.

With Triethylene melamine the “Average % of worms with 1 or more GFP embryos/category” value [1, 6] was 3.77% *.

With `C[C@]12CC[C@@H]3c4ccc(O)cc4CC[C@H]3[C@@H]1CC[C@@H]2O` [E2, estradiol] the “increase in the number of nuclei comprising the mitotic region vs ethanol” value ([2]; 1 mM E2 for 4 days, DAPI staining) was 13% and the “bivalent maturation / condensation defects at diakinesis” value [4] was “did not cause any observable bivalent maturation defects”.

In the case of `CC[C@@]1(O)C(=O)OCc2c1cc1n(c2=O)Cc2cc3c(CN(C)C)c(O)ccc3nc2-1` [Topotecan HCl], the “Average % of worms with 1 or more GFP embryos/category” value [1, 5] is reported as 3.77% *.

With `CC[C@]1(O)C[C@@H]2CN(CCc3c([nH]c4ccccc34)[C@@](C(=O)OC)(c3cc4c(cc3OC)N(C)[C@H]3[C@@](O)(C(=O)OC)[C@H](OC(C)=O)[C@]5(CC)C=CCN6CC[C@]43[C@@H]65)C2)C1` [Vinblastine] the “Average % of worms with 1 or more GFP embryos/category” value [1, 5] was 23.3% *.
